Laboratory results from patent publication US9096593B2, “Compounds and methods for kinase modulation, and indications therefor” (Plexxikon Inc., priority 2009, dated 2015).
Where two headings read alike, the source gives them in different places.

How the values were obtained:
[1] = molecular target: Fms kinase (Homo sapiens (Human), UniProt P07333); assay: Fms kinase biochemical activity assay (AlphaScreen, biotin-(E4Y)10 phosphorylation)
Summary of the method: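 Recombinant human Fms phosphorylating 30 nM biotin-(E4Y)10 with 100 μM ATP (1 ng/well enzyme) in Hepes pH 7.5 buffer with Mg2+/Mn2+, 5% DMSO, 20 min at 30 °C. Phosphotyrosine detected by AlphaScreen streptavidin donor/PY20 acceptor beads; IC50 from signal versus compound concentration.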

[2] = molecular target: BCR-FMS/BaF3 cells (Homo sapiens, UniProt P07333); assay: BCR-FMS/BaF3 cell proliferation assay (ATPlite); assay type: cell-based
BCR-FMS/BaF3 cells, sequence (P07333 20-972 limits assumed, change not shown): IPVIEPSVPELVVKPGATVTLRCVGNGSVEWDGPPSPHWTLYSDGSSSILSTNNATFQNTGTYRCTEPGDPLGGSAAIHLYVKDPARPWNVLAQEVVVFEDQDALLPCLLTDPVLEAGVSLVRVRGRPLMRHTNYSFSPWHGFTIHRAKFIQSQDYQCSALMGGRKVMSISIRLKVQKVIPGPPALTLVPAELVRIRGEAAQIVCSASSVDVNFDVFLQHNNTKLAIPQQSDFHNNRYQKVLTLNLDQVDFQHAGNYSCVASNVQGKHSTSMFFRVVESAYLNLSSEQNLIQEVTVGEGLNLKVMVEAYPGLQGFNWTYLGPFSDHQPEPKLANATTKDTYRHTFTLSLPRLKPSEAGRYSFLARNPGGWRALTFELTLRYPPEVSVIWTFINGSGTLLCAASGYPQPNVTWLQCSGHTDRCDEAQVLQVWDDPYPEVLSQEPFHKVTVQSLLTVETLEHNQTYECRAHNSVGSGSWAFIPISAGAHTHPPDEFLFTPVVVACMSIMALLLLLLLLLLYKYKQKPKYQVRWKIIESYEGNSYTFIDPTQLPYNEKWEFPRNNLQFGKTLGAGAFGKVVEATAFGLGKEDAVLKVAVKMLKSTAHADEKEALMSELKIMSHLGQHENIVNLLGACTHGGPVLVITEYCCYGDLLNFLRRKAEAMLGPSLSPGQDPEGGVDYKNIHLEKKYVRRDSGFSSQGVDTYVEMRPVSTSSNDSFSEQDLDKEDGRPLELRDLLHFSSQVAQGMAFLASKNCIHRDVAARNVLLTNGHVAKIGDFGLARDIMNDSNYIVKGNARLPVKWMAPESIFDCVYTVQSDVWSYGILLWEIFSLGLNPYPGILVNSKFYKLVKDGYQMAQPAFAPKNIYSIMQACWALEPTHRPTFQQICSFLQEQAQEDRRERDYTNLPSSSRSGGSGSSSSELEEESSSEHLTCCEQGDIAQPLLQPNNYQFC
Summary of the method: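 BCR-FMS/BaF3 cells at 2×10^5 cells/mL in growth media with 1 mg/mL G418, without WEHI/IL-3, treated with 8-point 1:3 compound titrations (top 10 μM final) for 3 days at 37 °C, 5% CO2. Cell number by ATPlite luminescence; IC50 from signal versus concentration.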

[3] = molecular target: c-Kit kinase (Homo sapiens (Human), UniProt P10721); assay: c-Kit kinase biochemical activity assay (AlphaScreen, biotin-(E4Y)10 phosphorylation)
c-Kit kinase, sequence (P10721 26-976): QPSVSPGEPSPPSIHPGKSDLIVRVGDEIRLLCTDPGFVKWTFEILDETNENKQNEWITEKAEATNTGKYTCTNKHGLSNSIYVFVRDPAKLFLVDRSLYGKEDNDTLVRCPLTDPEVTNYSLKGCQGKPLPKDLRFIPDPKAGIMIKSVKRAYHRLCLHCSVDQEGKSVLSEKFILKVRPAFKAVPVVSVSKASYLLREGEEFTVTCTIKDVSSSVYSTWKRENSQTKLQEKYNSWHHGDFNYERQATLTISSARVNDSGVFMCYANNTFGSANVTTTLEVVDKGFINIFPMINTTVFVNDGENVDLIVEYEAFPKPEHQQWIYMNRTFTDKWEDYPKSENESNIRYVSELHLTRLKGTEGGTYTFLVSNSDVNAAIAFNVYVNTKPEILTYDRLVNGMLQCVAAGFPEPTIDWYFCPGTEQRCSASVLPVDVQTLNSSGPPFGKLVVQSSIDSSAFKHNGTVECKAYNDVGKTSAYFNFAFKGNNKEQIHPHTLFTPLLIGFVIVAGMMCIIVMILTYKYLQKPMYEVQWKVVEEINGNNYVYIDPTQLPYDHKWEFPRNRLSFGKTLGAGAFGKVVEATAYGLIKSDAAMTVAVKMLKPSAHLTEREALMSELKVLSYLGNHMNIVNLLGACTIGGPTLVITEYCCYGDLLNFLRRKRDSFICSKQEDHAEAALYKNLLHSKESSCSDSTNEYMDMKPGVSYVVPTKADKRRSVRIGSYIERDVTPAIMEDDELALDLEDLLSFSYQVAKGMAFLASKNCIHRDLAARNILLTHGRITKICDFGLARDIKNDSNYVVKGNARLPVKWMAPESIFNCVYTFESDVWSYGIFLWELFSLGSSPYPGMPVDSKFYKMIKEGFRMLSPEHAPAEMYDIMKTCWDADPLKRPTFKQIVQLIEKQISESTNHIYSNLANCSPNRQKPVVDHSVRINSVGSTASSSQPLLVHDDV

[4] = read-out: Biochemical activity (IC50 μM) Fms
[5] = Kit IC50/Fms IC50, BCR-KIT/BaF3 vs BCR-FMS/BaF3 cells
[6] = read-out: BCR/BaF3 (IC50 μM) Fms; BCR-FMS/BaF3 cells

Fms kinase, sequence (P07333 20-972): as the sequence (P07333 20-972 limits assumed, change not shown) above

Q: With `COc1ccnc2[nH]cc(Cc3ccc(NCc4ccc(Cl)cc4)nc3F)c12` [Compound P-2037, (4-Chloro-benzyl)-[6-fluoro-5-(4-methoxy-1H-pyrrolo[2,3-b]pyridin-3-ylmethyl)-pyridin-2-yl]-amine] as the compound, how does the IC50 ([1]; 100 μM ATP, read-out: Biochemical (IC50 μM) Fms) read?
A: < 0.1 µM

Q: And the “Biochemical activity selectivity (Kit IC50/Fms IC50)” value [1]?
A: <20

Q: And the IC50 [1, 4]?
A: < 0.1 µM

Q: And the “BCR/BaF3 selectivity (Kit IC50/Fms IC50)” value [2, 5]?
A: <20

Q: What about the IC50 [2, 6] of the same compound?
A: < 0.1 µM

Q: And the IC50 ([2]; read-out: Cell based (IC50 μM) BCR/BaF3 (Fms); BCR-FMS/BaF3 cells, 3 days)?
A: < 0.1 µM

Q: And the IC50 [3]?
A: > 0.1 µM

Q: How did the “Biochemical activity selectivity (Kit IC50/Fms IC50)” value [1] turn out when `COc1ccc(CNc2ccc(Cc3c[nH]c4ncc(C)cc34)c(F)n2)c(OC)n1` [Compound P-2097, (2,6-Dimethoxy-pyridin-3-ylmethyl)-[6-fluoro-5-(5-methyl-1H-pyrrolo[2,3-b]pyridin-3-ylmethyl)-pyridin-2-yl]-amine] was run?
A: >20

Q: What about the IC50 [1, 4] of the same compound?
A: < 0.1 µM

Q: And the “BCR/BaF3 selectivity (Kit IC50/Fms IC50)” value [2, 5]?
A: >20

Q: What about the IC50 [2, 6] of the same compound?
A: < 0.1 µM

Q: And the IC50 [3]?
A: > 0.1 µM

Q: For `Cc1ccc(CNc2ccc(Cc3c[nH]c4ncc(C)cc34)c(F)n2)nc1` [Compound P-2131, [6-Fluoro-5-(5-methyl-1H-pyrrolo[2,3-b]pyridin-3-ylmethyl)-pyridin-2-yl]-(5-methyl-pyridin-2-ylmethyl)-amine], which “Biochemical activity selectivity (Kit IC50/Fms IC50)” value [1] is on record?
A: >20

Q: What about the IC50 [1, 4] of the same compound?
A: < 0.1 µM

Q: And the IC50 ([2]; BCR-FMS/BaF3 cells; read-out: BCR/BaF3 (IC50 μM) Fms)?
A: < 0.1 µM

Q: And the “BCR/BaF3 selectivity (Kit IC50/Fms IC50)” value [2, 5]?
A: <20

Q: And the IC50 [3]?
A: > 0.1 µM
